Data set [1] deals with huAR (Homo sapiens, UniProt P10275). Nature of the data set: Competition binding assay on cells, human AR. How it is done:
(§1) The KD for subfamily 3 group C nuclear hormone receptors was determined on cells by displacing ^3H-steroidal agonists for the respective receptor. […].
(§2) The cold ligands and ^3H-steroids were co-incubated on cells in PBS at room temperature for one hour. Following incubation, the cells were washed twice with ice cold PBS and the unbound activity was retained for analysis. The cells were lysed with 1 mL of 1 M NaOH and collected. Bound and unbound fractions were counted in a liquid scintillation counter and expressed as a percentage of the total activity added per equal relative number of cells. […]. The specific binding component was plotted against the log of the competing ligand and curve fit using a non-linear regression algorithm with PRISM software.

Data set [2] deals with T1, huER (Homo sapiens, UniProt P03372).
T1 construct: DU145 (GR), LNCaP-AR (AR), MCF7 (PR, ER), GL261 (mouse GR), and 9L (rat GR); endogenous in cells; host or cells: MCF7
T1 sequence (P03372 1-595): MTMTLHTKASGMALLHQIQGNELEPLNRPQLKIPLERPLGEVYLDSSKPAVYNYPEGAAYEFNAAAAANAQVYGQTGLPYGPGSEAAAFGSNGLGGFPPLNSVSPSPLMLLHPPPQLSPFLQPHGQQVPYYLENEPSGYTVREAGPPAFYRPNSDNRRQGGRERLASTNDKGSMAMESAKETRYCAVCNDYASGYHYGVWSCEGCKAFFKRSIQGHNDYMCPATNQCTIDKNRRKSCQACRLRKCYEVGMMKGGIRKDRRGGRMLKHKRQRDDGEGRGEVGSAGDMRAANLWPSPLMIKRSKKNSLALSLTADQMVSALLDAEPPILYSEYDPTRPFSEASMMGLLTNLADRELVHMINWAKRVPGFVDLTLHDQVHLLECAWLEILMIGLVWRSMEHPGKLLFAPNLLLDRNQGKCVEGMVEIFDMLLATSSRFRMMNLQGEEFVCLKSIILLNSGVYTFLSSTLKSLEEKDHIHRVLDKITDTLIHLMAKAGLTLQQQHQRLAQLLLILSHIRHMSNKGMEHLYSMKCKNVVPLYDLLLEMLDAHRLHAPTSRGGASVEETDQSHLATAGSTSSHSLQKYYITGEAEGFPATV
As to the kind of experiment: Competition binding assay on cells, human ER. The conditions noted are these: MCF7 cells, displacing 3H-estradiol.

The target in data set [3] is T2, mouse GR (Mus musculus, UniProt P06537).
T2 construct: endogenous in cells; host or cells: GL261
T2 sequence (P06537 1-792): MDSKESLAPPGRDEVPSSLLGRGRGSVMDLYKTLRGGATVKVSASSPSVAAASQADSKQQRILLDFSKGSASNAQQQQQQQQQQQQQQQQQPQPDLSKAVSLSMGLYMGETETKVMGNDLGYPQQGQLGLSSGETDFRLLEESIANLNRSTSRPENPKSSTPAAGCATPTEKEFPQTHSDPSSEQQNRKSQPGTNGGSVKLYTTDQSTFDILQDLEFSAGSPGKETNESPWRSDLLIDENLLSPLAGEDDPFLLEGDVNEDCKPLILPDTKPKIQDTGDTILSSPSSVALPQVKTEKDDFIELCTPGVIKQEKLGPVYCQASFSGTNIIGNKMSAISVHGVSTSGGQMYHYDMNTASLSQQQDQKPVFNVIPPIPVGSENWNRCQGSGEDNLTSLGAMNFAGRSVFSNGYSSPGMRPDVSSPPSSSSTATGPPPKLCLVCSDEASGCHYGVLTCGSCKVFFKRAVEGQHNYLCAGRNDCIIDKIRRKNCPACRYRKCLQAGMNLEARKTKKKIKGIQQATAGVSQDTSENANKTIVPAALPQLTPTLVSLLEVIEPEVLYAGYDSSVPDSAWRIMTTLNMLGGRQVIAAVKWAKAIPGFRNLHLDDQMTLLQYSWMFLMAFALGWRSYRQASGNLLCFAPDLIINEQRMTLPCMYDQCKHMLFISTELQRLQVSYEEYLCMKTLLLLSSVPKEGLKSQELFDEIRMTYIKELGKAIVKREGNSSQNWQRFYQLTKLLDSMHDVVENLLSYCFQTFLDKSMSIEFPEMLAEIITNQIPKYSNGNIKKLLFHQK
Nature of the data set: Competition binding assay on cells, mouse GR. The conditions noted are these: GL261 cells, displacing 3H-dexamethasone; read-out: KD msGR. How it is done:
as §1, §2

Data set [4] in a line: Log P determination (octanol:water). The class given is physicochemical. The conditions noted are these: octanol:water 1:1 v/v. How it is done:
To a microcentrifuge tube containing 1 mL of octanol:water (1:1 v/v) was added 50 μL of ^18F-GR02 (total activity = 37 MBq). The solution was vortexed vigorously for 30 sec, and the biphasic layers were allowed to separate. The layers were manually pipetted into new microcentrifuge tubes, and the activity of each fraction was read with a dose calibrator. The water fraction contained 1.7 MBq, and the octanol fraction contained 35.3 MBq.

Data set [5] concerns the target T3, rat GR (Rattus norvegicus, UniProt P06536).
T3 construct: endogenous in cells; host or cells: 9L
T3 sequence (P06536 1-795): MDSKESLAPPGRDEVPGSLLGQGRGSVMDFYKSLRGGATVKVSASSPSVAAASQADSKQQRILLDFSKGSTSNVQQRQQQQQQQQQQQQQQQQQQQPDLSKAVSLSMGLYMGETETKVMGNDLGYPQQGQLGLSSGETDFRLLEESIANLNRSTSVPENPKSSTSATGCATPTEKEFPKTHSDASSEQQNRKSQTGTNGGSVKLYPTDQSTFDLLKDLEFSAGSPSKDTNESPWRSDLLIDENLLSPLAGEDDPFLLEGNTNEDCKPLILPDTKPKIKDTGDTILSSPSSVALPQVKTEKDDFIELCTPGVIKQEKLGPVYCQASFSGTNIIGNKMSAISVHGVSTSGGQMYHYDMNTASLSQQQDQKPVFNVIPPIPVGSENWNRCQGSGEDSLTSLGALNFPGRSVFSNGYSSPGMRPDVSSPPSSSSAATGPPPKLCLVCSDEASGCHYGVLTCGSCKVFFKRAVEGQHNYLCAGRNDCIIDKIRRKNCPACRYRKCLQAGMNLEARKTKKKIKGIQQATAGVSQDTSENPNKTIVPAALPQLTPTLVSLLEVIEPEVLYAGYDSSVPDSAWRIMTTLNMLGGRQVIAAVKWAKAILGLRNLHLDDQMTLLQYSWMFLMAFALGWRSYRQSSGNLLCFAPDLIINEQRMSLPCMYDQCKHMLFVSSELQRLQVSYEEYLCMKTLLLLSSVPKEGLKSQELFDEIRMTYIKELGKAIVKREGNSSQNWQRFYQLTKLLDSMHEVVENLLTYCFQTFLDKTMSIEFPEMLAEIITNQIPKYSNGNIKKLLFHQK
Nature of the data set: Competition binding assay on cells, rat GR. The conditions noted are these: 9L cells, displacing 3H-dexamethasone; read-out: KD rtGR. How it is done: as §1, §2

A word on the Kd: it is the free concentration of one partner at which half of the binding sites on the other are occupied at equilibrium, for simple one-to-one binding. As usually defined, the logP is a log measure of how a compound divides between an organic and an aqueous phase. High values mean higher lipophilicity, low ones lower lipophilicity.

Sequence of huAR (P10275 whole entry): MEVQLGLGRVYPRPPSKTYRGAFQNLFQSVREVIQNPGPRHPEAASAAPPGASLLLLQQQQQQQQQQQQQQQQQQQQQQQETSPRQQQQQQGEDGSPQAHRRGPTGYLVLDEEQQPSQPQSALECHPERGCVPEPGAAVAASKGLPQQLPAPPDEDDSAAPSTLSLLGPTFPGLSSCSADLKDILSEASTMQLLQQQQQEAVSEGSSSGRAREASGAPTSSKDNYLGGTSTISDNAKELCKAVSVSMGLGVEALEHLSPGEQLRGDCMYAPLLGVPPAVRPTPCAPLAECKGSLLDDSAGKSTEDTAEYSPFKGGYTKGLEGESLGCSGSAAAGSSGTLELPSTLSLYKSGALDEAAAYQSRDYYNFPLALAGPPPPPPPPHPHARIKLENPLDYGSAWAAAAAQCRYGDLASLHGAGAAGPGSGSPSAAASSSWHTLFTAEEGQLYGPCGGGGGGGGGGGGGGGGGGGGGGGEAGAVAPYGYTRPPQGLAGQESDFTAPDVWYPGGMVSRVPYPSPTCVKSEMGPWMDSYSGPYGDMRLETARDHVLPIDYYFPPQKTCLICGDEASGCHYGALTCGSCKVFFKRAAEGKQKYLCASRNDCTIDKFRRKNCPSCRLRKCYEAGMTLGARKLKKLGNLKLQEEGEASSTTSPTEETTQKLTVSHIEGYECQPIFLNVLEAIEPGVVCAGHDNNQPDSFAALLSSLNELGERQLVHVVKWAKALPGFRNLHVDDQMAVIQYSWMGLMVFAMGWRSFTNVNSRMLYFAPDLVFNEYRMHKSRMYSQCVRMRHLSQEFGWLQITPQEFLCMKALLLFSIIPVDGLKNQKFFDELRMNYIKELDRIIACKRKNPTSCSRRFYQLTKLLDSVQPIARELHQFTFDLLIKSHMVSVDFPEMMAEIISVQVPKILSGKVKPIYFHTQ

Consider `C[C@]12C=CC(=O)C=C1CCC1C2[C@@H](O)C[C@@]2(C)C1CC[C@]2(O)C(=O)COCCCF` (stereo partly shown) [GR01], for which the Kd in data set [1] was determined as 1460 nM; in data set [2] it was 978 nM.
Consider `C[C@]12C=CC(=O)C=C1CCC1C2[C@@H](O)C[C@@]2(C)C1CC[C@]2(O)C(=O)CNC(=O)c1ccc(F)cc1` (stereo partly shown) [GR02], for which the Kd was 6.71 nM in data set [3], 1260 nM in data set [1], 20700 nM in data set [2] and 6.18 nM in data set [5]. The logP in data set [4] was 1.33.

These data come from paper PMC5945515, “Measuring glucocorticoid receptor expression in vivo with PET” (Oncotarget, 2018).
